Data as given in patent publication US9562899B2, “Method of detecting OXA-048 carbapenemase producing bacteria” (BIOMÉRIEUX, priority 2012, dated 2017).

Key:
Experiment in all cases: Temocillin MIC with EDTA in the medium (Example 2)
Assay type in all cases: cell-based, Enterobacteriaceae
Conditions in all cases: Ex 2, MIC in mg/l
[1] = system: KPC strains
Source text: (§1) Optimization of the Detection Specificity by Introducing Specific Inhibitors Inhibition of Class B Strains (NDM, VIM, IMP) by Adding EDTA
(§2) Identical to that used to determine the temocillin MICs by agar dilution (example 1).
(§3) For each temocillin concentration, the following concentrations of active EDTA will be tested in the form of disodium EDTA: 0, 1.77, 2.12, 2.47 and 2.83 mmol/l.
(§4) Method: identical to the method used in example 1.

[2] = system: BLSE strains
Source text: as §1, §2, §3, §4

[3] = system: AmpC strains
Source text: as §1, §2, §3, §4

**Q.** `CO[C@@]1(NC(=O)C(C(=O)O)c2ccsc2)C(=O)N2[C@@H](C(=O)O)C(C)(C)S[C@@H]21` (stereo partly shown) [temocillin] was tested. Which “No. of KPC strains with MIC 150” value ([1]; 0 mmol/l of EDTA) did it give?
**A.** The value was 0.

**Q.** What about the “No. of KPC strains with MIC 200” value ([1]; 0 mmol/l of EDTA) of the same compound?
**A.** The value was 0.

**Q.** And the “No. of KPC strains with MIC 300” value ([1]; 0 mmol/l of EDTA)?
**A.** Its value is 0.

**Q.** What about the “No. of KPC strains with MIC >300” value ([1]; 0 mmol/l of EDTA) of the same compound?
**A.** Its value is 1.

**Q.** What about the “No. of KPC strains with MIC ≦50” value ([1]; 0 mmol/l of EDTA) of the same compound?
**A.** The value was 18.

**Q.** What about the “No. of KPC strains with MIC 150” value ([1]; 1.77 mmol/l of active EDTA) of the same compound?
**A.** Its value is 0.

**Q.** And the “No. of KPC strains with MIC 200” value ([1]; 1.77 mmol/l of active EDTA)?
**A.** The value was 0.

**Q.** And the “No. of KPC strains with MIC 300” value ([1]; 1.77 mmol/l of active EDTA)?
**A.** Its value is 0.

**Q.** What about the “No. of KPC strains with MIC >300” value ([1]; 1.77 mmol/l of active EDTA) of the same compound?
**A.** The value was 1.

**Q.** What about the “No. of KPC strains with MIC ≦50” value ([1]; 1.77 mmol/l of active EDTA) of the same compound?
**A.** The value was 18.

**Q.** What about the “No. of KPC strains with MIC 150” value ([1]; 2.12 mmol/l of active EDTA) of the same compound?
**A.** Its value is 0.

**Q.** And the “No. of KPC strains with MIC 200” value ([1]; 2.12 mmol/l of active EDTA)?
**A.** The value was 0.

**Q.** And the “No. of KPC strains with MIC 300” value ([1]; 2.12 mmol/l of active EDTA)?
**A.** Its value is 0.

**Q.** And the “No. of KPC strains with MIC >300” value ([1]; 2.12 mmol/l of active EDTA)?
**A.** Its value is 1.

**Q.** And the “No. of KPC strains with MIC ≦50” value ([1]; 2.12 mmol/l of active EDTA)?
**A.** Its value is 18.

**Q.** And the “No. of KPC strains with MIC 150” value ([1]; 2.47 mmol/l of active EDTA)?
**A.** The value was 0.

**Q.** What about the “No. of KPC strains with MIC 200” value ([1]; 2.47 mmol/l of active EDTA) of the same compound?
**A.** Its value is 0.

**Q.** What about the “No. of KPC strains with MIC 300” value ([1]; 2.47 mmol/l of active EDTA) of the same compound?
**A.** The value was 0.

**Q.** What about the “No. of KPC strains with MIC >300” value ([1]; 2.47 mmol/l of active EDTA) of the same compound?
**A.** The value was 1.

**Q.** And the “No. of KPC strains with MIC ≦50” value ([1]; 2.47 mmol/l of active EDTA)?
**A.** Its value is 18.

**Q.** And the “No. of KPC strains with MIC 150” value ([1]; 2.83 mmol/l of active EDTA)?
**A.** Its value is 0.

**Q.** And the “No. of KPC strains with MIC 200” value ([1]; 2.83 mmol/l of active EDTA)?
**A.** The value was 0.

**Q.** What about the “No. of KPC strains with MIC 300” value ([1]; 2.83 mmol/l of active EDTA) of the same compound?
**A.** Its value is 0.

**Q.** What about the “No. of KPC strains with MIC >300” value ([1]; 2.83 mmol/l of active EDTA) of the same compound?
**A.** The value was 0.

**Q.** What about the “No. of KPC strains with MIC ≦50” value ([1]; 2.83 mmol/l of active EDTA) of the same compound?
**A.** Its value is 19.

**Q.** What about the “No. of BLSE strains with MIC 150” value ([2]; 0 mmol/l of EDTA) of the same compound?
**A.** Its value is 0.

**Q.** And the “No. of BLSE strains with MIC 200” value ([2]; 0 mmol/l of EDTA)?
**A.** The value was 0.

**Q.** What about the “No. of BLSE strains with MIC 300” value ([2]; 0 mmol/l of EDTA) of the same compound?
**A.** Its value is 0.

**Q.** And the “No. of BLSE strains with MIC >300” value ([2]; 0 mmol/l of EDTA)?
**A.** The value was 0.

**Q.** What about the “No. of BLSE strains with MIC ≦50” value ([2]; 0 mmol/l of EDTA) of the same compound?
**A.** The value was 10.

**Q.** What about the “No. of BLSE strains with MIC 150” value ([2]; 1.77 mmol/l of active EDTA) of the same compound?
**A.** Its value is 0.

**Q.** What about the “No. of BLSE strains with MIC 200” value ([2]; 1.77 mmol/l of active EDTA) of the same compound?
**A.** Its value is 0.

**Q.** And the “No. of BLSE strains with MIC 300” value ([2]; 1.77 mmol/l of active EDTA)?
**A.** The value was 0.

**Q.** What about the “No. of BLSE strains with MIC >300” value ([2]; 1.77 mmol/l of active EDTA) of the same compound?
**A.** The value was 0.

**Q.** What about the “No. of BLSE strains with MIC ≦50” value ([2]; 1.77 mmol/l of active EDTA) of the same compound?
**A.** Its value is 10.

**Q.** And the “No. of BLSE strains with MIC 150” value ([2]; 2.12 mmol/l of active EDTA)?
**A.** Its value is 1.

**Q.** And the “No. of BLSE strains with MIC 200” value ([2]; 2.12 mmol/l of active EDTA)?
**A.** Its value is 0.

**Q.** What about the “No. of BLSE strains with MIC 300” value ([2]; 2.12 mmol/l of active EDTA) of the same compound?
**A.** The value was 0.

**Q.** And the “No. of BLSE strains with MIC >300” value ([2]; 2.12 mmol/l of active EDTA)?
**A.** Its value is 0.

**Q.** What about the “No. of BLSE strains with MIC ≦50” value ([2]; 2.12 mmol/l of active EDTA) of the same compound?
**A.** Its value is 9.

**Q.** What about the “No. of BLSE strains with MIC 150” value ([2]; 2.47 mmol/l of active EDTA) of the same compound?
**A.** The value was 0.

**Q.** What about the “No. of BLSE strains with MIC 200” value ([2]; 2.47 mmol/l of active EDTA) of the same compound?
**A.** Its value is 0.

**Q.** And the “No. of BLSE strains with MIC 300” value ([2]; 2.47 mmol/l of active EDTA)?
**A.** Its value is 0.

**Q.** What about the “No. of BLSE strains with MIC >300” value ([2]; 2.47 mmol/l of active EDTA) of the same compound?
**A.** Its value is 0.

**Q.** And the “No. of BLSE strains with MIC ≦50” value ([2]; 2.47 mmol/l of active EDTA)?
**A.** Its value is 10.

**Q.** What about the “No. of BLSE strains with MIC 150” value ([2]; 2.83 mmol/l of active EDTA) of the same compound?
**A.** The value was 0.

**Q.** And the “No. of BLSE strains with MIC 200” value ([2]; 2.83 mmol/l of active EDTA)?
**A.** Its value is 0.

**Q.** What about the “No. of BLSE strains with MIC 300” value ([2]; 2.83 mmol/l of active EDTA) of the same compound?
**A.** The value was 0.

**Q.** And the “No. of BLSE strains with MIC >300” value ([2]; 2.83 mmol/l of active EDTA)?
**A.** The value was 0.

**Q.** What about the “No. of BLSE strains with MIC ≦50” value ([2]; 2.83 mmol/l of active EDTA) of the same compound?
**A.** The value was 10.

**Q.** What about the “No. of AmpC strains with MIC 150” value ([3]; 0 mmol/l of EDTA) of the same compound?
**A.** The value was 0.

**Q.** And the “No. of AmpC strains with MIC 200” value ([3]; 0 mmol/l of EDTA)?
**A.** Its value is 0.

**Q.** And the “No. of AmpC strains with MIC 300” value ([3]; 0 mmol/l of EDTA)?
**A.** The value was 0.

**Q.** And the “No. of AmpC strains with MIC >300” value ([3]; 0 mmol/l of EDTA)?
**A.** Its value is 0.

**Q.** And the “No. of AmpC strains with MIC ≦50” value ([3]; 0 mmol/l of EDTA)?
**A.** The value was 10.

**Q.** What about the “No. of AmpC strains with MIC 150” value ([3]; 1.77 mmol/l of active EDTA) of the same compound?
**A.** Its value is 1.

**Q.** What about the “No. of AmpC strains with MIC 200” value ([3]; 1.77 mmol/l of active EDTA) of the same compound?
**A.** Its value is 0.

**Q.** What about the “No. of AmpC strains with MIC 300” value ([3]; 1.77 mmol/l of active EDTA) of the same compound?
**A.** The value was 0.

**Q.** And the “No. of AmpC strains with MIC >300” value ([3]; 1.77 mmol/l of active EDTA)?
**A.** Its value is 0.

**Q.** What about the “No. of AmpC strains with MIC ≦50” value ([3]; 1.77 mmol/l of active EDTA) of the same compound?
**A.** The value was 9.

**Q.** And the “No. of AmpC strains with MIC 150” value ([3]; 2.12 mmol/l of active EDTA)?
**A.** Its value is 1.

**Q.** And the “No. of AmpC strains with MIC 200” value ([3]; 2.12 mmol/l of active EDTA)?
**A.** The value was 0.

**Q.** What about the “No. of AmpC strains with MIC 300” value ([3]; 2.12 mmol/l of active EDTA) of the same compound?
**A.** The value was 0.

**Q.** And the “No. of AmpC strains with MIC >300” value ([3]; 2.12 mmol/l of active EDTA)?
**A.** Its value is 0.
